Source: ChEMBL document CHEMBL1781986, “Structure-activity relationships of pyrrole based S-nitrosoglutathione reductase inhibitors: pyrrole regioisomers and propionic acid replacement” (Bioorg Med Chem Lett, 2011)
The source made the active and inactive calls. The rule behind the calls is not given here.

What was measured:
[1] = Inhibition of GSNOR expressed in Escherichia coli using GSNO by cuvette method
[2] = biological target: Adenosine receptor A2a (Homo sapiens) (UniProt P29274); test: Inhibition of human recombinant A2a receptor at 10 uM by radioligand binding assay
[3] = tested on: Neuropeptide Y receptor type 1; test: Inhibition of human recombinant Y1 receptor at 10 uM by radioligand binding assay
Homo sapiens = organism: Homo sapiens; test: Inhibition of human recombinant Dop delta2 receptor at 10 uM by radioligand binding assay
[4] = biological target: Sodium-dependent dopamine transporter (Homo sapiens) (UniProt Q01959); test: Inhibition of human recombinant DAT at 10 uM by radioligand binding assay
[5] = biological target: Small conductance calcium-activated potassium channel protein 1 (Homo sapiens) (UniProt Q92952); test: Inhibition of human recombinant Skca channel at 10 uM by radioligand binding assay
[6] = biological target: Histamine H2 receptor (Homo sapiens) (UniProt P25021); test: Inhibition of human recombinant H2 receptor at 10 uM by radioligand binding assay
[7] = biological target: T1, Muscarinic acetylcholine receptor M2 (Homo sapiens) (UniProt P08172); test: Inhibition of human recombinant M2 receptor at 10 uM by radioligand binding assay
T1 sequence (whole entry): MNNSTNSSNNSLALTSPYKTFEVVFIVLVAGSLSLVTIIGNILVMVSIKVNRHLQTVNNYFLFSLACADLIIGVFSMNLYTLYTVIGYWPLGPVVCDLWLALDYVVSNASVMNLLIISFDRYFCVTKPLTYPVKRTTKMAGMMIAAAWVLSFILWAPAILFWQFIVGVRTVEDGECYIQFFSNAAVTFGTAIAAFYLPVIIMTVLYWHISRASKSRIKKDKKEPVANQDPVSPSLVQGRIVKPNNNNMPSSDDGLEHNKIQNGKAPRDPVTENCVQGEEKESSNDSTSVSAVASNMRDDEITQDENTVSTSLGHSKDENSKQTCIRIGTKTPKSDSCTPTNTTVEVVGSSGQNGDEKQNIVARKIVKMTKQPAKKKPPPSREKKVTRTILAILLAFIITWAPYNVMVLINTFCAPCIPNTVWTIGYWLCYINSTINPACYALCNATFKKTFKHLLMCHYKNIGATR

[8] = biological target: Histamine H1 receptor (Homo sapiens) (UniProt P35367); test: Inhibition of human recombinant H1 receptor at 10 uM by radioligand binding assay
[9] = biological target: Vasopressin V1a receptor (Homo sapiens) (UniProt P37288); test: Inhibition of human recombinant V1a receptor at 10 uM by radioligand binding assay
[10] = biological target: Sodium-dependent serotonin transporter (Homo sapiens) (UniProt P31645); test: Inhibition of human recombinant 5HT transporter at 10 uM by radioligand binding assay
[11] = biological target: Neurotensin receptor type 1 (Homo sapiens) (UniProt P30989); test: Inhibition of human recombinant NTS1 receptor at 10 uM by radioligand binding assay
[12] = biological target: T2, Vasoactive intestinal polypeptide receptor 1 (Homo sapiens) (UniProt P32241); test: Inhibition of human recombinant VPAC1 receptor at 10 uM by radioligand binding assay
T2 sequence (whole entry): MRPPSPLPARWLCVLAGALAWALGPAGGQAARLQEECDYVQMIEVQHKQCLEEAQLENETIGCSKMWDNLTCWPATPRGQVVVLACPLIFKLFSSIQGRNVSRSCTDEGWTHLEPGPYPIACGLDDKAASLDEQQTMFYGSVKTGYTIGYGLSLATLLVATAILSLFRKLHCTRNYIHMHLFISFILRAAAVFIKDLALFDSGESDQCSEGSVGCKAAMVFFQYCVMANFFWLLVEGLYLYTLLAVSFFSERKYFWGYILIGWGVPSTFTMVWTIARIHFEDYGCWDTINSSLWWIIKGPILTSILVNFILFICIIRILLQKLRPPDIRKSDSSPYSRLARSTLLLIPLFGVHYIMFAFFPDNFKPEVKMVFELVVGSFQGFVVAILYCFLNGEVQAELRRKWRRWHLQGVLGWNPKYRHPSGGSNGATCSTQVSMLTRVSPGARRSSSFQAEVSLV

[13] = biological target: T3, Endothelin-1 receptor (Homo sapiens) (UniProt P25101); test: Inhibition of human recombinant ETA receptor at 10 uM by radioligand binding assay
T3 sequence (whole entry): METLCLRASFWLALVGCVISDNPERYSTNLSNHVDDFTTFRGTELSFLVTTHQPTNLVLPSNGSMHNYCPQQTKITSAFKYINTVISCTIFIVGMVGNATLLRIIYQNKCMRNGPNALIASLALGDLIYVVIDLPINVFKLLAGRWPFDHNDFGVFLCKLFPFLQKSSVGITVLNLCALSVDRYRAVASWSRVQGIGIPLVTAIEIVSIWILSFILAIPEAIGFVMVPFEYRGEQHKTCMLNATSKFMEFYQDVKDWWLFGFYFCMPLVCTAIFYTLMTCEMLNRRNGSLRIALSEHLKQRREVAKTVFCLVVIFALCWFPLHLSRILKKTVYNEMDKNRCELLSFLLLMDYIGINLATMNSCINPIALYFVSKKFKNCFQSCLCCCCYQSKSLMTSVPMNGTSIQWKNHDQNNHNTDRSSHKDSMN

[14] = biological target: 5-hydroxytryptamine receptor 1B (Homo sapiens) (UniProt P28222); test: Inhibition of human recombinant 5HT1B receptor at 10 uM by radioligand binding assay
[15] = biological target: T4, 5-hydroxytryptamine receptor 1A (Homo sapiens) (UniProt P08908); test: Inhibition of human recombinant 5HT1A receptor at 10 uM by radioligand binding assay
T4 sequence (whole entry): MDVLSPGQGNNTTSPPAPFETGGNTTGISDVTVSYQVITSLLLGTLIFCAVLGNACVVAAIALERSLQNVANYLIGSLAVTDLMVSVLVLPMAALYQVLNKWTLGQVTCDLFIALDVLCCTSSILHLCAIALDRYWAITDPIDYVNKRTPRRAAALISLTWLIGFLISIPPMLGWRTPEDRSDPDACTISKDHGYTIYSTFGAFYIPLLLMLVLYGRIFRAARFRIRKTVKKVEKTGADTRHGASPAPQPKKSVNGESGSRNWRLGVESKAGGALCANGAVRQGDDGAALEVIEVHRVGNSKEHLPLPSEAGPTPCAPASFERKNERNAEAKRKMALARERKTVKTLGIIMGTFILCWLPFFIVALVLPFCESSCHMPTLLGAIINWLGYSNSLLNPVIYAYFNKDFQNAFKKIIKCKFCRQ

[16] = biological target: Nociceptin receptor (Homo sapiens) (UniProt P41146); test: Inhibition of human recombinant NOP receptor at 10 uM by radioligand binding assay
[17] = biological target: Beta-2 adrenergic receptor (Homo sapiens) (UniProt P07550); test: Inhibition of human recombinant beta2 receptor at 10 uM by radioligand binding assay
[18] = biological target: Adrenergic receptor alpha-1 (Homo sapiens) (UniProt P35348+P25100+P35368); test: Inhibition of human recombinant alpha1 receptor at 10 uM by radioligand binding assay
[19] = Inhibition of GSNOR expressed in Escherichia coli using GSNO by plate method

Chain of Sodium-dependent serotonin transporter (Homo sapiens) (P31645 whole entry, looked up): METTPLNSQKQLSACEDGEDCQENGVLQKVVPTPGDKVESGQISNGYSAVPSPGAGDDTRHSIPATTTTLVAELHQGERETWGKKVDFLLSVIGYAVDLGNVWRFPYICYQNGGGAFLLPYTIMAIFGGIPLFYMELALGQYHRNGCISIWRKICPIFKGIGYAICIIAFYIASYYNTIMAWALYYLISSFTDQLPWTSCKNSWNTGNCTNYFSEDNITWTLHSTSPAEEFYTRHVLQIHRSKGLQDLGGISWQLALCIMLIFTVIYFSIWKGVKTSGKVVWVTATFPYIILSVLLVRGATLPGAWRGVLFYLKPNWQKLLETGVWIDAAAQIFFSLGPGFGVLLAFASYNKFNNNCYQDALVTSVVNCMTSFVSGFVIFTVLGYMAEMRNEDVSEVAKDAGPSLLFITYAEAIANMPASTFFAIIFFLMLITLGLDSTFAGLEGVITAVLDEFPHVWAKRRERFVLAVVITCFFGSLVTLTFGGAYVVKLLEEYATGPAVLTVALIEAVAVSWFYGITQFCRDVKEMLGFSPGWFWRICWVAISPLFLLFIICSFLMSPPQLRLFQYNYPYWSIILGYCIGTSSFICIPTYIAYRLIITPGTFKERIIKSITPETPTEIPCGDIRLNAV
Chain of 5-hydroxytryptamine receptor 1B (Homo sapiens) (P28222 whole entry): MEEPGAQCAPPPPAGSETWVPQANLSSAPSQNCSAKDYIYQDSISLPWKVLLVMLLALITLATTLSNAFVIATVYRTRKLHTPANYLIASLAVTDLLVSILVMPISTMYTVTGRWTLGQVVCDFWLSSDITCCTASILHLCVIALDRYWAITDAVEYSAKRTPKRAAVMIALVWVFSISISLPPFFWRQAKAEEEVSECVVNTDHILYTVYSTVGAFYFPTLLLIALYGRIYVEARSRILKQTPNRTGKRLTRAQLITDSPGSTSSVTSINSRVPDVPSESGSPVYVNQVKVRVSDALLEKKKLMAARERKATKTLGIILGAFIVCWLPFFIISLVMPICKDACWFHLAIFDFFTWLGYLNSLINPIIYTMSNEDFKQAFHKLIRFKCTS
Chain of Sodium-dependent dopamine transporter (Homo sapiens) (Q01959 whole entry): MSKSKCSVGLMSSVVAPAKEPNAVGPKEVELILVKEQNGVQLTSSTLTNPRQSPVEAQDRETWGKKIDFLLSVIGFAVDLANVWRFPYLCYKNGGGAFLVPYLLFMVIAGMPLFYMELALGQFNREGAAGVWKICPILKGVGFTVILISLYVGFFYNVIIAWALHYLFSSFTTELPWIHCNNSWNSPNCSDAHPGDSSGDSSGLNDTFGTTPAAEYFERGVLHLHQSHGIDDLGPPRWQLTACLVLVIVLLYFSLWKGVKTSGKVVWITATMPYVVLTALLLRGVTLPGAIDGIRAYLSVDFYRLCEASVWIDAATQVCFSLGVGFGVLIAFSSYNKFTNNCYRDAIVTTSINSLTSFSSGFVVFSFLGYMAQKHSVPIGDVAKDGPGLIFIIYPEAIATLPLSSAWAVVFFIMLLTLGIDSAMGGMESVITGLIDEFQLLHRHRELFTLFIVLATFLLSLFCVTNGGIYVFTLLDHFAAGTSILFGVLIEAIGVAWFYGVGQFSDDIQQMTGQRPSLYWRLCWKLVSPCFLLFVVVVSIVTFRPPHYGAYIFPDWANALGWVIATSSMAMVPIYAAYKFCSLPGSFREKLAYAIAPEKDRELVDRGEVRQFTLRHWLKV
Chain of Histamine H1 receptor (Homo sapiens) (P35367 whole entry): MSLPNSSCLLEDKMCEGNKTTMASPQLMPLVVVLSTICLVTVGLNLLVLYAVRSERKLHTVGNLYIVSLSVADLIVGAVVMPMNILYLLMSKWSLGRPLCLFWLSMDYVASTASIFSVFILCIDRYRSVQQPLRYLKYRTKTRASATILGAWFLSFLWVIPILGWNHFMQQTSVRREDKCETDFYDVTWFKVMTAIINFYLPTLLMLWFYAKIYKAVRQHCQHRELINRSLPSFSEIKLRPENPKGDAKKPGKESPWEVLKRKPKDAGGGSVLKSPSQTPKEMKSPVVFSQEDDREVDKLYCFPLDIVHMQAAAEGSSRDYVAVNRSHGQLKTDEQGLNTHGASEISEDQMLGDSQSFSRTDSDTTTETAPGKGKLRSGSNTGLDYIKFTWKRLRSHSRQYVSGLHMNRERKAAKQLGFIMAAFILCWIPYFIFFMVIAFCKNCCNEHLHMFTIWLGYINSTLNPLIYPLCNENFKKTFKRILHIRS
Chain of Vasopressin V1a receptor (Homo sapiens) (P37288 whole entry, looked up): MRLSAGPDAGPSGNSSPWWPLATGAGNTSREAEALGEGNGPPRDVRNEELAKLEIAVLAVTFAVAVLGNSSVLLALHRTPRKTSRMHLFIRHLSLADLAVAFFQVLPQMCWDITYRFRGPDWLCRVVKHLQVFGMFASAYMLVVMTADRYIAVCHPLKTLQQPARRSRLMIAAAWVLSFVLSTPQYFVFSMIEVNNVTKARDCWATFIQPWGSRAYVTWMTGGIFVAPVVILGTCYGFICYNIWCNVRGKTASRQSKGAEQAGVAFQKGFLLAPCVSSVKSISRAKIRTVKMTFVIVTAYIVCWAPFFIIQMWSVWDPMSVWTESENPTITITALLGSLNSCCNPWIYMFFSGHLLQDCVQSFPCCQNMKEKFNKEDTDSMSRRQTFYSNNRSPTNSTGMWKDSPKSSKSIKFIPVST
Chain of Beta-2 adrenergic receptor (Homo sapiens) (P07550 whole entry, looked up): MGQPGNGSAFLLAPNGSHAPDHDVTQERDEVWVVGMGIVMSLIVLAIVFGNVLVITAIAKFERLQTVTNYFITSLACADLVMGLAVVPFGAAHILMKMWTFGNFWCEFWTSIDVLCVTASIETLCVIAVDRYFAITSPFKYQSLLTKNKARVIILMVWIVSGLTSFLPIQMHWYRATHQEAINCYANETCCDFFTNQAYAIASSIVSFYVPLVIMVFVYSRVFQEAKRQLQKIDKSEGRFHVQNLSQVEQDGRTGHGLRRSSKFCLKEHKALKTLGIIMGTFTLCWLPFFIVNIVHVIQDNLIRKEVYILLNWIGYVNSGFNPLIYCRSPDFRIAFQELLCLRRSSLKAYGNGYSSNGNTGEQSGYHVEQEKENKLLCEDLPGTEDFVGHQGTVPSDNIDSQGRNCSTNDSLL
Chain of Nociceptin receptor (Homo sapiens) (P41146 whole entry): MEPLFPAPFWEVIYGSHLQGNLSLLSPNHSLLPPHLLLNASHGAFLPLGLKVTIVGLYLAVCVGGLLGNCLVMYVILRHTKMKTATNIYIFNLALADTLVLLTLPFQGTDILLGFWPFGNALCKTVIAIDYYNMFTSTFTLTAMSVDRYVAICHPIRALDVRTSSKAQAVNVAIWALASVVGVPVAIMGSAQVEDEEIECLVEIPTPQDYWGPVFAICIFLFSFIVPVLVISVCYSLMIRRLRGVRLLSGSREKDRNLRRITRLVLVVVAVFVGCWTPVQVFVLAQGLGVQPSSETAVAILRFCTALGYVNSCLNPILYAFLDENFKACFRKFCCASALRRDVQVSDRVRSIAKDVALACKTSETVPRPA
Chain of Small conductance calcium-activated potassium channel protein 1 (Homo sapiens) (Q92952 whole entry): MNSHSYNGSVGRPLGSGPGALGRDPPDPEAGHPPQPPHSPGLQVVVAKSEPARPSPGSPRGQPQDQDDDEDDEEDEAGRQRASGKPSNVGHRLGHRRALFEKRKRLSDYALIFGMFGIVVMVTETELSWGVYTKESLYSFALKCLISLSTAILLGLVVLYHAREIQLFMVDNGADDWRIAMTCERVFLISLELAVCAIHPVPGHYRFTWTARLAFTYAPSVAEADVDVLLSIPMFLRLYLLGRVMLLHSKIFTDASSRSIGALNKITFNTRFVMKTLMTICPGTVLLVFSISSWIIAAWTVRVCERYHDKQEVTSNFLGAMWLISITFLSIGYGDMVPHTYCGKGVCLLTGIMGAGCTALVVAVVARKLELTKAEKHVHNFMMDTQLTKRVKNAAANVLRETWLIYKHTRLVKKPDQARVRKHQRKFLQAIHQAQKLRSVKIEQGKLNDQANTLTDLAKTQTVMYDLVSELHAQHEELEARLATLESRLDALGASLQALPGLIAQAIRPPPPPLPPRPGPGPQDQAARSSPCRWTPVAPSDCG
Chain of Histamine H2 receptor (Homo sapiens) (P25021 whole entry): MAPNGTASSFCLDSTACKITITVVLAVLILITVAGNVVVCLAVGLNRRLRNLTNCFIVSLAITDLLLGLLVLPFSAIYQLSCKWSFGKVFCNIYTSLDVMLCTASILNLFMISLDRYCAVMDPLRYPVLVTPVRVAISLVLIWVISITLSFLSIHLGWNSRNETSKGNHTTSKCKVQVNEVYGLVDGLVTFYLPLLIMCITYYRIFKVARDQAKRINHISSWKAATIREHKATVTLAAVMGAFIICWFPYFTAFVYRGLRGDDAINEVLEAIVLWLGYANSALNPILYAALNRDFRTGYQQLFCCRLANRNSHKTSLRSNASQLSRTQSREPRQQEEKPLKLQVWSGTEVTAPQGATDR
Chain of Neurotensin receptor type 1 (Homo sapiens) (P30989 whole entry): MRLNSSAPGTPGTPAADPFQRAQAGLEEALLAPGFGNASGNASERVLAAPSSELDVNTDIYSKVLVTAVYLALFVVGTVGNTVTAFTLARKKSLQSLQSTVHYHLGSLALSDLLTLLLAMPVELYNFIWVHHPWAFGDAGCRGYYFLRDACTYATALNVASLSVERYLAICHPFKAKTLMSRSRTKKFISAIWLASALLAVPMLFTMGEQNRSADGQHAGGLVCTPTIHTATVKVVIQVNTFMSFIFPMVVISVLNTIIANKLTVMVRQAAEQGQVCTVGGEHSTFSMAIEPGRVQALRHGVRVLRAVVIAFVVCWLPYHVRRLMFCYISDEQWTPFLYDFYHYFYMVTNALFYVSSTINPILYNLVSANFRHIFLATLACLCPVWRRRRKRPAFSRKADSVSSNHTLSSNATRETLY

Row | IC50 [1] [nM] | inhibition [2] | inhibition [3] | inhibition (Homo sapiens) | inhibition [4] | inhibition [5] | inhibition [6] | inhibition [7] | inhibition [8] | inhibition [9] | inhibition [10] | inhibition [11] | inhibition [12] | inhibition [13] | inhibition [14] | inhibition [15] | inhibition [16] | inhibition [17] | inhibition [18] | IC50 [19] [nM] | Structure (SMILES)
1 | 190 | Active | Active | Active | Active | Active | Active | Active | Active | Active | Active | Active | Active | Active | Active | Active | Active | Active | Active |  | COc1ccc(-c2ccn(-c3ccc(O)c([N+](=O)[O-])c3)c2-c2ccc(C(N)=O)cc2C)cc1
2 | 20 | inactive |  | Active | inactive | inactive | inactive | inactive | inactive | inactive | inactive | inactive | inactive | inactive | inactive | inactive | inactive | inactive | inactive | 10 | Cc1cc(C(N)=O)ccc1-n1c(CCC(=O)O)ccc1-c1ccc(-n2ccnc2)cc1 [N6022]
3 |  | inactive | inactive | Active | inactive | inactive | inactive | inactive | inactive | inactive | inactive | inactive | inactive | inactive | inactive | inactive | inactive | inactive | inactive | 35 | Cc1cc(C(N)=O)ccc1-c1c(-c2ccc(-n3ccnc3)cc2)ccn1CCC(=O)O
4 | 280 | Active | Active | Active | Active | Active | Active | Active | Active | Active | Active | Active | Active | Active | Active | Active | Active | Active | Active |  | COc1ccc(-c2ccn(-c3ccc(C(=O)O)c(O)c3)c2-c2ccc(C(N)=O)cc2C)cc1
5 |  | inactive | inactive | Active | inactive | inactive | inactive | inactive | inactive | inactive | inactive | inactive | inactive | inactive | inactive | inactive | inactive | inactive | inactive | 9.9 | Cc1cc(C(N)=O)ccc1-c1c(CCC(=O)O)ccn1-c1ccc(-n2ccnc2)cc1
